Experimental data as given in patent publication US11401278B2, “Macrocyclic indole derivatives” (The Broad Institute, Inc., priority 2017, dated 2022).
Values joined by “and” are separate entries in the source; they are usually repeats but may differ in a detail not shown here. Equal values may be shown once. Where a name gives a salt, the structure may show the parent alone. Read-outs that look alike come from different tables or passages of the source.

How the values were obtained:
[1] = target: MCL-1 (Homo sapiens (Human), UniProt Q07820, K194A/K197A/R201A); test: Protein-protein interaction assay MCL-1/Noxa BH3 peptide (MCL-1 assay, TR-FRET); assay type: binding; conditions: MBP-MCL-1 / Noxa BH3 peptide, median
MCL-1, sequence (Q07820 whole entry K194A/K197A/R201A, looked up, the tested form may be a part): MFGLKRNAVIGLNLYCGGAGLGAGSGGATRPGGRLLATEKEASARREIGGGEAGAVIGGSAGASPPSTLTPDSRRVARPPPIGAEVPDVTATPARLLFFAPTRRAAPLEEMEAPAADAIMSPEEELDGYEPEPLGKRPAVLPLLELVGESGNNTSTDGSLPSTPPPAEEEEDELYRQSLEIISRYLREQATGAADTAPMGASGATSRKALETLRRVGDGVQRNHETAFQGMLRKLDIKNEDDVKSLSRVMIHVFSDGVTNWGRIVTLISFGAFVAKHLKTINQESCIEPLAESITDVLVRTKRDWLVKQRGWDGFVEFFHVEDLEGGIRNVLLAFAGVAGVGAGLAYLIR
In short: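 MBP-fused MCL-1 (aa 173-329, 1 nM) was pre-incubated with compound for 10 min at 22° C, then biotinylated Noxa BH3 peptide (1 nM) was added with anti-MBP-Eu cryptate and streptavidin-XL665. Incubation was 1 h at 22° C, then overnight at 4° C, in Tris pH 7 buffer. The 665/620 nm ratio over 11 concentrations (0.1 nM-20 μM) gave IC50 by 4-parameter fit.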

[2] = tested on: AMO-1; test: Antiproliferation assay (Assay 7), AMO-1; assay type: cell-based; conditions: CellTiter-Glo, several values per example
In short: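 Anti-proliferative effect is determined from CellTiter-Glo signal after a 72-hour incubation at 37° C, with a time-zero reference plate measured in parallel.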

[3] = 72 hours, read-out: Antiproli AMO-1 [M] IC50
[4] = Homo sapiens, AMO1, 72 h, read-out: Antiproli AMO-1 [M] IC50

Cc1c2c(nn1C)CN(C)S(=O)(=O)CCCn1c(C(=O)O)c(CCCOc3cccc4cc(F)ccc34)c3ccc(F)c-2c31 (single isomer, unassigned; enantiomer 1) [Example 38, (−)-4-fluoro-7-{3-[(6-fluoronaphthalen-1-yl)oxy]propyl}-2,3,14-trimethyl-13,13-dioxo-10,11,12,13,14,15-hexahydro-2H-13lambda^6-pyrazolo[3′,4′:4,5][1,2,8]thiadiazacycloundecino-[6,7,8-hi]indole-8-carboxylic acid (Enantiomer 1)]
IC50 [1]: 23 nM | IC50 [2, 3]: 2.9e-05 M

Cc1c2c(nn1C)CN(C)S(=O)(=O)CCCn1c(C(=O)O)c(CCCOc3cccc4cc(F)ccc34)c3ccc(F)c-2c31 (racemic) [Example 25, (rac)-13-Fluoro-1-(3-((6-fluoronaphthalen-1-yl)oxy)propyl)-8,11,12-trimethyl-5,6,9,11-tetrahydro-4H,8H-pyrazolo[3′,4′:4,5][1]thia[2,8]diazacycloundecino[6,7,8-hi]indole-2-carboxylic acid 7,7-dioxide]
IC50 [1]: 1.7 nM | IC50 [2, 4]: 4.1e-06 M

Cc1c2c(nn1C)CN(C)S(=O)(=O)CCCn1c(C(=O)O)c(CCCOc3cccc4c3CCC4)c3ccc(F)c-2c31 (racemic) [Example 27, (rac)-1-(3-((2,3-Dihydro-1H-inden-4-yl)oxy)propyl)-13-fluoro-8,11,12-trimethyl-5,6,9,11-tetrahydro-4H,8H-pyrazolo[3′,4′:4,5][1]thia[2,8]diazacycloundecino[6,7,8-hi]indole-2-carboxylic acid 7,7-dioxide]
IC50 [1]: 2.1 nM | IC50 [2, 4]: 2.5e-06 M

CCc1c2c(nn1C)CN(CCCN1CCOCC1)S(=O)(=O)CCCn1c(C(=O)O)c(CCCOc3cccc4ccccc34)c3cccc-2c31 (racemic) [Example 15, (rac)-12-Ethyl-11-methyl-8-(3-morpholinopropyl)-1-(3-(naphthalen-1-yloxy)propyl)-4,5,6,8,9,11-hexahydropyrazolo[3′,4′:4,5][1,2,8]thiadiazacycloundecino[6,7,8-hi]indole-2-carboxylic acid 7,7-dioxide 2,2,2-trifluoroacetic acid salt]
IC50 [1]: 5.6 nM | IC50 [2, 4]: 1.2e-05 M

Cc1c2c(nn1C)CN(C1CC1)S(=O)(=O)CCCn1c(C(=O)O)c(CCCOc3cccc4ccccc34)c3ccc(Cl)c-2c31 [Example 40, (rac)-4-chloro-14-cyclopropyl-2,3-dimethyl-7-[3-(1-naphthyloxy)propyl]-11,12,14,15-tetrahydro-2H,10H-pyrazolo[3′,4′:4,5][1,2,8]thiadiazacycloundecino[6,7,8-hi]indole-8-carboxylic acid 13,13-dioxide]
IC50 [1]: 2.1 nM | IC50 [2, 3]: 4.9e-06 M

Cc1c2c(nn1C)CN(C)S(=O)(=O)CCCn1c(C(=O)O)c(CCCOc3cccc4ccccc34)c3ccc(Cl)c-2c31 (racemic) [Example 4, (rac)-4-Chloro-2,3,14-trimethyl-7-{3-[(naphthalen-1-yl)oxy]propyl}-13,13-dioxo-10,11,12,13,14,15-hexahydro-2H-13λ^6-pyrazolo[3′,4′:4,5][1,2,8]thiadiazacycloundecino-[6,7,8-hi]indole-8-carboxylic acid]
IC50 [1]: 1.2 nM | IC50 [2, 4]: 2.5e-06 M

Cc1c2c(nn1C)CN(C)S(=O)(=O)CCCn1c(C(=O)O)c(CCCOc3cccc4ccccc34)c3ccc(Cl)c-2c31 (single isomer, unassigned; enantiomer 1) [Example 5, 4-Chloro-2,3,14-trimethyl-7-{3-[(naphthalen-1-yl)oxy]propyl}-13,13-dioxo-10,11,12,13,14,15-hexahydro-2H-13λ^6-pyrazolo[3′,4′:4,5][1,2,8]thiadiazacycloundecino[6,7,8-hi]indole-8-carboxylic acid-N-ethylethanamine salt (Enantiomer 1)]
IC50 [1]: 0.52 nM | IC50 ([2]; 72 hours, listed as 05, read-out: Antiproli AMO-1 [M] IC50): 1.5e-06 M

Cc1c2c(nn1C)CN(C)S(=O)(=O)CCCn1c(C(=O)O)c(CCCOc3cccc4c3CCCC4)c3ccc(F)c-2c31 (racemic) [Example 29, (rac)-13-Fluoro-8,11,12-trimethyl-1-(3-((5,6,7,8-tetrahydronaphthalen-1-yl)oxy)propyl)-5,6,9,11-tetrahydro-4H,8H-pyrazolo[3′,4′:4,5][1]thia[2,8]diazacycloundecino[6,7,8-hi]indole-2-carboxylic acid 7,7-dioxide]
IC50 [1]: 3.1 nM | IC50 [2, 4]: 7.1e-06 M

CCc1c2c(nn1C)CN(C)S(=O)(=O)CCCn1c(C(=O)O)c(CCCOc3cccc4cc(F)ccc34)c3ccc(Cl)c-2c31 (single isomer, unassigned; enantiomer 1) [Example 36, (+)-4-chloro-3-ethyl-7-{3-[(6-fluoronaphthalen-1-yl)oxy]propyl}-2,14-dimethyl-13,13-dioxo-10,11,12,13,14,15-hexahydro-2H-13lambda^6-pyrazolo[3′,4′:4,5][1,2,8]thiadiazacycloundecino-[6,7,8-hi]indole-8-carboxylic acid (Enantiomer 1)]
IC50 [1]: 0.6 nM | IC50 [2, 3]: 4.5e-07 M and 5.3e-07 M

Cc1c2c(nn1C)CN(C1CC1)S(=O)(=O)CCCn1c(C(=O)O)c(CCCOc3cccc4cc(F)ccc34)c3ccc(Cl)c-2c31 (single isomer, unassigned; enantiomer 2) [Example 43, (+)-4-chloro-14-cyclopropyl-7-{3-[(6-fluoro-1-naphthyl)oxy]propyl}-2,3-dimethyl-11,12,14,15-tetrahydro-2H,10H-pyrazolo[3′,4′:4,5][1,2,8]thiadiazacycloundecino[6,7,8-hi]indole-8-carboxylic acid 13,13-dioxide N-diethylamine salt (Enantiomer 2)]
IC50 [1]: 6.2 nM | IC50 [2, 3]: 1.1e-05 M

CCc1c2c(nn1C)CN(C)S(=O)(=O)CCCn1c(C(=O)O)c(CCCOc3cc(C)c(Cl)c(C)c3)c3ccc(Cl)c-2c31 [Example 22, (rac)-13-Chloro-1-(3-(4-chloro-3,5-dimethylphenoxy)propyl)-12-ethyl-8,11-dimethyl-4,5,6,8,9,11-hexahydropyrazolo[3′,4′:4,5][1,2,8]thiadiazacycloundecino[6,7,8-hi]indole-2-carboxylic acid 7,7-dioxide]
IC50 [1]: 3.1 nM | IC50 [2, 4]: 2.6e-06 M

Cc1c2c(nn1C)C(CCN1CCOCC1)N(C)S(=O)(=O)CCCn1c(C(=O)O)c(CCCOc3cccc4ccccc34)c3cccc-2c31 (racemic) [Example 44, (rac)-2,3,14-trimethyl-15-[2-(rac)-(morpholin-4-yl)ethyl]-7-[3-(1-naphthyloxy)propyl]-11,12,14,15-tetrahydro-2H,10H-pyrazolo[3′,4′:4,5][1,2,8]thiadiazacycloundecino[6,7,8-hi]indole-8-carboxylic acid 13,13-dioxide (Mixture of Stereoisomers)]
IC50 [1]: 3 nM | IC50 [2, 4]: 4.4e-06 M

Cc1c2c(nn1C)C(CCN1CCOCC1)N(C)S(=O)(=O)CCCn1c(C(=O)O)c(CCCOc3cccc4ccccc34)c3cccc-2c31 (single isomer, unassigned; enantiomer 1) [Example 45, 2,3,14-trimethyl-15-[2-(morpholin-4-yl)ethyl]-7-{3-[(naphthalen-1-yl)oxy]propyl}-13,13-dioxo-10,11,12,13,14,15-hexahydro-2H-13lambda^6-pyrazolo[3′,4′:4,5][1,2,8]thiadiazacycloundecino[6,7,8-hi]indole-8-carboxylic acid N-ethylethanamine Salt (Enantiomer 1)]
IC50 [1]: 33 nM | IC50 [2, 3]: 1.5e-05 M
